Values of other authors, collected in patent US20110189710A1, “TREATMENT OF POMPE DISEASE WITH […] PHARMACOLOGICAL CHAPERONES AND MONITORING TREATMENT USING SURROGATE MARkERS” (AMICUS THERAPEUTICS, INC., priority 2008, published 2011).

Legend:
mutant (R301Q) α-Gal A = target: T1, mutant (R301Q) α-Gal A (Homo sapiens, UniProt P06280, R301Q); details: oral administration; transgenic mice overexpressing mutant (R301Q) α-Gal A; cited from earlier work
T1 construct: host or cells: transgenic mice
T1 sequence (P06280 32-429 R301Q): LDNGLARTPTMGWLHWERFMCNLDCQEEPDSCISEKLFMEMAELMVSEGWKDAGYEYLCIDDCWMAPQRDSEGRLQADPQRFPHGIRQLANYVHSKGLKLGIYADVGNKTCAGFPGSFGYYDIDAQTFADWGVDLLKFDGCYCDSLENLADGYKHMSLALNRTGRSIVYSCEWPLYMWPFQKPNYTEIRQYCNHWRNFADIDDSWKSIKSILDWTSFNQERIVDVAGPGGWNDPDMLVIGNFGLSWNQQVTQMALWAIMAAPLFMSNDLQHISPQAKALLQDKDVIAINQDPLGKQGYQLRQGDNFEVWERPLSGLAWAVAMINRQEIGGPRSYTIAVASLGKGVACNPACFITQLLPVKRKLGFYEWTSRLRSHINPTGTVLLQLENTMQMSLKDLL

[1] = target: T2, human mutant α-Gal A (R301Q) (Homo sapiens, UniProt P06280, R301Q); details: neutral pH; cited from earlier work
T2 sequence (P06280 32-429 R301Q): T1 sequence (P06280 32-429 R301Q)

[2] = tested on: α-Gal A (R301Q or Q279E) in Fabry patient lymphoblasts; details: lymphoblasts from Fabry patients with R301Q or Q279E mutations; cited from earlier work

SMILES: OC[C@H]1NC[C@H](O)[C@@H](O)[C@H]1O [DGJ, 1-deoxygalactonojirimycin]
- Enzyme activity in major organs (mutant (R301Q) α-Gal A): substantially elevated the enzyme activity
- In vitro stability of mutant enzyme [1]: effectively increased in vitro stability
- Mutant enzyme activity in lymphoblasts [2]: enhanced the mutant enzyme activity
